# Measured values published in US20010046684A1, “Methods of structure-based drug design using MS/MNR” (priority 2000, published 2001).
# How the values were obtained:
# MMP-1 [1] = target: T1, MMP-1 (Homo sapiens, UniProt P03956); conditions: Inhibitors of MMP-1; compounds having known affinities, previously tested; cited from earlier work
# T1 sequence (P03956 100-469): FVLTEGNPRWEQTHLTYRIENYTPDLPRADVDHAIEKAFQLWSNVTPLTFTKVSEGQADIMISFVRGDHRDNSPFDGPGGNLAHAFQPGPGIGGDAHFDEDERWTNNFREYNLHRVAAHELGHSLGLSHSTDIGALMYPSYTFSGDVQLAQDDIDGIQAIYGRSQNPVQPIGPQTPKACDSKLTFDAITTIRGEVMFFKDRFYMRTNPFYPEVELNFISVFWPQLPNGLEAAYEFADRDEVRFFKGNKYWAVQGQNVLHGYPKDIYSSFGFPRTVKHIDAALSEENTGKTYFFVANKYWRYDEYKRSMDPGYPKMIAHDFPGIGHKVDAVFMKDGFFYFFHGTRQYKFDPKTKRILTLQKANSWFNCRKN
# MMP-1 [2] = target: T2, MMP-1 (Homo sapiens, UniProt P03956); assay: 2D 1H-15N HSQC NMR chemical shift perturbation of 15N-MMP-1; type: binding; conditions: 0.2 mM 15N-MMP-1, compound 0.2-4.0 mM, pH 6.5, 35° C.
# T2 construct: made in house
# T2 sequence (P03956 101-269 limits assumed): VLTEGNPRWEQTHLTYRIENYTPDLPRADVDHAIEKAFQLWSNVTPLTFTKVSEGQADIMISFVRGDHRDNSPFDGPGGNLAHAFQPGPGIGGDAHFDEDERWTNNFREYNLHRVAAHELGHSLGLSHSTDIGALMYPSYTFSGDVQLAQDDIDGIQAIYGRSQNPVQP
# Protocol: MMP-1 was labeled as described in Moy, J. Biomol. NMR, Vol. 10: 9-19 (1997). […] The 2D ^1H—^15N HSQC spectra were recorded with 256 complex points in t1, 2048 real points in t2, and 192 scans per increment. Spectra windows for t1 and t2 were 1723.7 and 8064.5 Hz, respectively, with the carrier at 4.75 and 115.2 ppm, respectively. Data were processed and analyzed using NMRPipe, NMRWish [F. Delaglio, S. Grzesiek, G. W. Vuister, G. Zhu, J. Pfeifer, and A. Bax J. Biomol. NMR 6, 277 (1995). ] and PIPP [D. S. Garrett, R. Powers, A. M. Gronenborn, and G. M. Clore J. Magn. Reson. 95, 214-20 (1991).] on a Sun Ultra 10 workstation. […] (FIG. 4A, 4B, 4C), i.e. stronger binding contributes to greater perturbations and weaker binding to less perturbations.
# MMP-1 [3] = target: T1, MMP-1; assay: Gel-filtration (Sephedex G25) / ESI mass spectral analysis of binding to MMP-1; conditions: 1 mM compound, 0.1 mM MMP-1, pH 6.5, room temperature, 30 minutes; unbound compound alone is retained
# Protocol: 1 mM each of compounds 1, 2 and 3 (Table 1) were dissolved in DMSO and each incubated alone or in the presence of MMP-1 at a 0.1 mM in a buffer consisting of 20 mM Tris, 100 mM NaCl, 5 mM CaCl2, 0.1 mM ZnCl2, 2 mM NaN3 and 3.5 mM DTT at pH 6.5 at room temperature for 30 minutes. The final concentration of DMSO in the MMP-1:compound mixture was 5%. A total volume of 25 μl of each sample was loaded on a Sephedex G25 column in a Millipore multiscreen filtration system composed of a 0.65 μm hydrophilic durapore filter. The samples were eluted using centrifugation (15,000×g for 3 minutes). Samples were collected and analyzed by mass spectroscopy using automated ESI/MS methods in both positive and negative ionization modes with a Micromass LCT quadrapole time of flight mass spectrometer and Quattro I triple-quadrapole mass spectrometer each equipped with a Gilson 215 liquid handler.
Elution of compound through size-exclusion column in presence of MMP-1 (binding detected by ESI/MS) (MMP-1 [3]),Compound,IC50 (MMP-1 [1]) [nM],Chemical shift perturbations in 2D 1H-15N HSQC spectrum of MMP-1 (MMP-1 [2])
,"Cc1cc(Br)cc(C(=O)NO)c1N(C)S(=O)(=O)c1ccc2ccccc2c1 [Compound 11, 5-Bromo-N-hydroxy-3-methyl-2-[methyl-(naphthalene-2-sulfonyl)-amino]-benzamide]",1100,
compound bound to MMP-1 is eluted,"COc1ccc(S(=O)(=O)N(CC(=O)O)c2c(C)cccc2C(=O)NO)cc1 [Compound 3, [(2-Hydroxycarbamoyl-6-methyl-phenyl)-(4-methoxy-benzenesulfonyl)-amino)-acetic acid]",89000,induce chemical shift perturbations for residues in the vicinity of the catalytic Zn and S1′ pocket in the MMP-1 active site
,"COc1ccc(S(=O)(=O)C(CCC(C)C)(Cc2cccnc2)C(=O)NO)cc1 (centres unmarked) [Compound 7, 2-(4-Methoxy-benzenesulfonyl)-5-methyl-2-pyridin-3-ylmethyl-hexanoic acid hydroxyamide]",760,
,3-[4-(2-Azepan-1-yl-ethoxy)-phenyl]-N-hydroxy-2-(4-methoxy-benzenesulfonyl)-2-propionamide [Compound 13],540,
,"COc1ccc(S(=O)(=O)N(Cc2ccccc2)c2ccc(C)cc2C(=O)NO)cc1 [Compound 4, 2-[Benzyl-(4-methoxy-benzenesulfonyl)-amino]-N-hydroxy-5-methyl-benzamide]",408,
compound bound to MMP-1 is eluted,"COc1ccc(S(=O)(=O)N(Cc2cccnc2)c2c(C(=O)O)cccc2C(=O)NO)cc1 [Compound 2, N-Hydroxy-2-[(4-methoxy-benzenesulfonyl)-pyridin-3-ylmethyl-amino]-isophthalamic acid]",9900,induce chemical shift perturbations for residues in the vicinity of the catalytic Zn and S1′ pocket in the MMP-1 active site
compound bound to MMP-1 is eluted,"COc1ccc(S(=O)(=O)N(Cc2cccnc2)[C@@H](C(=O)NO)C(C)C)cc1 [Compound 1, N2-(4-Methoxy-benzenesulfonyl)-N2-[(pyridin-3-yl)methyl]-N-hydroxy-D-valinamide]",,
